Reference: patent US10710978B2, “STK4 inhibitors for treatment of hematologic malignancies” (Dana-Farber Cancer Institute, Inc., priority 2015, dated 2020)

Experiments:
Type in all cases: binding
DYRK2 = DYRK2 (Homo sapiens (Human), UniProt Q92630); experiment: Ambit KINOSCAN assay; details: read-out: percent control (%) at 1 uM
Description: (§1) Kinase Selectivity Studies
(§2) To directly test the kinase selectivity of a compound of the present application over other human protein kinases, the compounds were tested in an Ambit KINOSCAN assay. Ambit KINOSCAN assay is an ATP site dependent competition assay. T7 kinase-tagged phage strains were grown in parallel in 24- or 96-well blocks in an E. coli host derived from the BL21 strain. E. Coli were grown to log phase and infected with T7 phage from a frozen stock and incubated with shaking at about 32° C. until lysis (˜90 min). The lysates were centrifuged (6,000 g) and filtered ([…]) to remove cell debris. […] The liganded beads were blocked with excess biotin and washed with blocking buffer (Seablock (Pierce), 1% BSA, 0.05% Tween 20, 1 mM DTT) to remove unbound ligand and to reduce non-specific phage binding. Binding reactions were assembled by combining phage lysates, liganded affinity beads, and test compounds (i.e., compounds of the present application) in 1× binding buffer (20% SeaBlock, 0.17×PBS, 0.05% Tween […]). Test compounds were prepared 1000× stocks in DMSO and rapidly diluted into the aqueous environment (0.1% DMSO final). DMSO (0.1%) was used as a control. All reactions were carried out in polystyrene 96-well plates that had been pre-treated with blocking buffer in a final volume of 0.1 ml. […] The phage titer in the eluates was measured by standard plaque assays or quantitative PCR. Binding data were fit to the equation […]), where L is the lower baseline, H is the upper baseline, Kd(test) is the biding constant for the interaction between the test compound and the kinase, and [test] is the free test compound concentration. Binding constants are measured in duplicate on the same day of testing. For more details on the Ambit KINOSCAN assay see Fabian, M. A., et al. “A Small Molecule-Kinase Interaction Map for Clinical Kinase Inhibitors” Nat. Biotechol. 23(3), 2005, 329-336. (Also see Davis, M. I., et al. “Comprehensive analysis of kinase inhibitor selectivity.” Nat. Biotechnol. 29(11), 2011, 1046-1051)

BMPR1B = BMPR1B (Homo sapiens (Human), UniProt O00238); experiment: Ambit KINOSCAN assay; details: read-out: percent control (%) at 1 uM
Description: as §1, §2

CLK1 = CLK1 (Homo sapiens (Human), UniProt P49759); experiment: Ambit KINOSCAN assay; details: read-out: percent control (%) at 1 uM
Description: as §1, §2

VRK2 = VRK2 (Homo sapiens (Human), UniProt Q86Y07); experiment: Ambit KINOSCAN assay; details: read-out: percent control (%) at 1 uM
Description: as §1, §2

CSNK1A1 = CSNK1A1 (Homo sapiens (Human), UniProt P48729); experiment: Ambit KINOSCAN assay; details: read-out: percent control (%) at 1 uM
Description: as §1, §2

CLK4 = CLK4 (Homo sapiens (Human), UniProt Q9HAZ1); experiment: Ambit KINOSCAN assay; details: read-out: percent control (%) at 1 uM
Description: as §1, §2

DYRK1A = DYRK1A (Homo sapiens (Human), UniProt Q13627); experiment: Ambit KINOSCAN assay; details: read-out: percent control (%) at 1 uM
Description: as §1, §2

CSNK1G1 = CSNK1G1 (Homo sapiens (Human), UniProt Q9HCP0); experiment: Ambit KINOSCAN assay; details: read-out: percent control (%) at 1 uM
Description: as §1, §2

MINK = MINK (Homo sapiens (Human), UniProt Q8N4C8); experiment: Ambit KINOSCAN assay; details: read-out: percent control (%) at 1 uM
Description: as §1, §2

IRAK1 = IRAK1 (Homo sapiens (Human), UniProt P51617); experiment: Ambit KINOSCAN assay
Description: as §1, §2

CSNK1E = CSNK1E (Homo sapiens (Human), UniProt P49674); experiment: Ambit KINOSCAN assay
Description: as §1, §2

GSK3A = GSK3A (Homo sapiens (Human), UniProt P49840); experiment: Ambit KINOSCAN assay; details: read-out: percent control (%) at 1 uM
Description: as §1, §2

DRAK1 = DRAK1 (Homo sapiens (Human), UniProt Q9UEE5); experiment: Ambit KINOSCAN assay; details: read-out: percent control (%) at 1 uM
Description: as §1, §2

CSNK1G3 = CSNK1G3 (Homo sapiens (Human), UniProt Q9Y6M4); experiment: Ambit KINOSCAN assay
Description: as §1, §2

CLK2 = CLK2 (Homo sapiens (Human), UniProt P49760); experiment: Ambit KINOSCAN assay; details: read-out: percent control (%) at 1 uM
Description: as §1, §2

CSNK1G2 = CSNK1G2 (Homo sapiens (Human), UniProt P78368); experiment: Ambit KINOSCAN assay; details: read-out: percent control (%) at 1 uM
Description: as §1, §2

MST2 = MST2 (Homo sapiens (Human), UniProt Q13188); experiment: Ambit KINOSCAN assay
Description: as §1, §2

CIT = CIT (Homo sapiens (Human), UniProt O14578); experiment: Ambit KINOSCAN assay; details: read-out: percent control (%) at 1 uM
Description: as §1, §2

DYRK1B = DYRK1B (Homo sapiens (Human), UniProt Q9Y463); experiment: Ambit KINOSCAN assay; details: read-out: percent control (%) at 1 uM
Description: as §1, §2

CSNK1A1L = CSNK1A1L (Homo sapiens (Human), UniProt Q8N752); experiment: Ambit KINOSCAN assay; details: read-out: percent control (%) at 1 uM
Description: as §1, §2

DCAMKL3 = DCAMKL3 (Homo sapiens (Human), UniProt Q9C098); experiment: Ambit KINOSCAN assay; details: read-out: percent control (%) at 1 uM
Description: as §1, §2

STK4 = STK4 (Homo sapiens (Human), UniProt Q13043); experiment: KiNativ Platform experiment, MM.1S cell lysates, biotinylated ATP, Western blot; details: 10 μM, 20 minutes, then biotinylated ATP 10 minutes
Description: FIG. 32A and FIG. 32B show the results of a KiNativ™ Platform experiment obtained after incubating MM.1S cell lysates with 10 μM of the indicated compounds for 20 minutes, followed by incubation with biotinylated ATP for 10 minutes. FIG. 32A is a graph showing the ratio of MEK2 to STK4 derived from the Western blotting band signals in FIG. 32B, in MM.1S cell lysates treated with 10 μM of Compound I-9, I-13, or I-27 or KIN001-305 followed by incubation with biotinylated ATP. FIG. 32B is a Western blot showing the levels of STK4 and MEK2 in MM.1S cells treated with 10 μM of Compound I-9, I-13, or I-27 or KIN001-305 followed by incubation with biotinylated ATP.

[1] = read-out: percent control (%) at 1 uM

Chain of CSNK1E (P49674 whole entry): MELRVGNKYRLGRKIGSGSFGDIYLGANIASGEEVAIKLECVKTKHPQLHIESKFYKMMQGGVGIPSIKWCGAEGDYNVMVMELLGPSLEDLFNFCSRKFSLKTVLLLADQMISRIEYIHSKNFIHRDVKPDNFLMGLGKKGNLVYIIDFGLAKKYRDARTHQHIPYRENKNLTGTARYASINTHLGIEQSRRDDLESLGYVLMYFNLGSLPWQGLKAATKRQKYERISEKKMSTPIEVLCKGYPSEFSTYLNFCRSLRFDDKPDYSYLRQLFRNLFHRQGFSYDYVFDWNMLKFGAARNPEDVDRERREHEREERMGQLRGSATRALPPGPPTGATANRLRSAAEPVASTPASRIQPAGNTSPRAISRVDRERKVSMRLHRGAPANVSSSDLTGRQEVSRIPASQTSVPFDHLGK
Chain of CSNK1G3 (Q9Y6M4 whole entry): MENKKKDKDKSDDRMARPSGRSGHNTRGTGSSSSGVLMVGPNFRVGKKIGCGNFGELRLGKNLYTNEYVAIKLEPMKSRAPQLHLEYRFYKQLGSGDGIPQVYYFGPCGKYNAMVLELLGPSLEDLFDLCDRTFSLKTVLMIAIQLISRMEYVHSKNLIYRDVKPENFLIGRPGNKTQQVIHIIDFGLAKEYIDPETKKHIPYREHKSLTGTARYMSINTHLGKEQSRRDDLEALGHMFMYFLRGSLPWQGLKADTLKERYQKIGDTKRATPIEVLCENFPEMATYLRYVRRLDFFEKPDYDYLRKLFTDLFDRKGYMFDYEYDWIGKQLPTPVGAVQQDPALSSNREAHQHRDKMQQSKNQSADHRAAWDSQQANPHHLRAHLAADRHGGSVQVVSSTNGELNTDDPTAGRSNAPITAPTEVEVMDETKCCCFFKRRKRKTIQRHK
Chain of IRAK1 (P51617 whole entry): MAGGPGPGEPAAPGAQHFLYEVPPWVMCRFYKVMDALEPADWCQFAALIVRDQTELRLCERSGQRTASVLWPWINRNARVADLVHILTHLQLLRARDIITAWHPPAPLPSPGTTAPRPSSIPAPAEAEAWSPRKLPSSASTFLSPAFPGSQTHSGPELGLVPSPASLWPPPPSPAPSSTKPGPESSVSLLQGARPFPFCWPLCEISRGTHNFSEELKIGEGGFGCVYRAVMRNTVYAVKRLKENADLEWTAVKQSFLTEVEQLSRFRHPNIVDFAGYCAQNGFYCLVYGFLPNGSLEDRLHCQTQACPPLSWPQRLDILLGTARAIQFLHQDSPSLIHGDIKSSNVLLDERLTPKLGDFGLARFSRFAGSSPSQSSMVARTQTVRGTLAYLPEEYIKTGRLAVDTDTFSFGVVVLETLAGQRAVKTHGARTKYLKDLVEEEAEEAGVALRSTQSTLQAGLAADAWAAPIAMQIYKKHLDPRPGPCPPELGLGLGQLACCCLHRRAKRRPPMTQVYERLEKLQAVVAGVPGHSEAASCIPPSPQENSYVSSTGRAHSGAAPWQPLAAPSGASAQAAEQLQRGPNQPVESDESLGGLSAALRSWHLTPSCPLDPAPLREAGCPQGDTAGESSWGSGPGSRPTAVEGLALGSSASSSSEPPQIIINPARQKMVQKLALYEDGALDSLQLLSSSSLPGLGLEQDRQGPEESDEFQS
Chain of MST2 (Q13188 whole entry): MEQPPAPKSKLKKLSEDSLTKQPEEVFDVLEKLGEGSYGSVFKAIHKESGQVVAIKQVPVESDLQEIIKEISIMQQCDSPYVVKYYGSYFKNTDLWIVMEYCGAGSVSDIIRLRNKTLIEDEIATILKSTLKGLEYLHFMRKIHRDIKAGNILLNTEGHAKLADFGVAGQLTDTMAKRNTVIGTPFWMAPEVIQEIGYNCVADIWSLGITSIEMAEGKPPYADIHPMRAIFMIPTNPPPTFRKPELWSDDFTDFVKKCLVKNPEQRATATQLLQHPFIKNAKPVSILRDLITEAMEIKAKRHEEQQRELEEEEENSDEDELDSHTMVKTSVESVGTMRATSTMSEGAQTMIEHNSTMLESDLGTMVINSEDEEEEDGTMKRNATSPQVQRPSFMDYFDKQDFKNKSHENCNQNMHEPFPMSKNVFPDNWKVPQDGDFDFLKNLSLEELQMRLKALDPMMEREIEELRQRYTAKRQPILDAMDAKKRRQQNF
Chain of CLK4 (Q9HAZ1 whole entry): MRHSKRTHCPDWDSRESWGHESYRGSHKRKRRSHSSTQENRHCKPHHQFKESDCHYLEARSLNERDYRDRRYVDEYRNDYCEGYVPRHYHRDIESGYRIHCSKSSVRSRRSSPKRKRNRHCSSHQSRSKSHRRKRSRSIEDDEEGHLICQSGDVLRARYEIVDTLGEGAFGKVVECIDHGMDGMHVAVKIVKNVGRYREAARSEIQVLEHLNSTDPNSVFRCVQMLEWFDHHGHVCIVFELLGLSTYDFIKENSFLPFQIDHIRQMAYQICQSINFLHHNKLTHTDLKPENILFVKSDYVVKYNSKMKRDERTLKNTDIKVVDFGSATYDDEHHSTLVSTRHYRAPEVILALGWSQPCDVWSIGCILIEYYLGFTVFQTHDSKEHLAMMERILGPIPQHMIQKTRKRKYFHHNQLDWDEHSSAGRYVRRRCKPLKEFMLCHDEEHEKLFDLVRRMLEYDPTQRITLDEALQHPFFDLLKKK
Chain of CIT (O14578 whole entry): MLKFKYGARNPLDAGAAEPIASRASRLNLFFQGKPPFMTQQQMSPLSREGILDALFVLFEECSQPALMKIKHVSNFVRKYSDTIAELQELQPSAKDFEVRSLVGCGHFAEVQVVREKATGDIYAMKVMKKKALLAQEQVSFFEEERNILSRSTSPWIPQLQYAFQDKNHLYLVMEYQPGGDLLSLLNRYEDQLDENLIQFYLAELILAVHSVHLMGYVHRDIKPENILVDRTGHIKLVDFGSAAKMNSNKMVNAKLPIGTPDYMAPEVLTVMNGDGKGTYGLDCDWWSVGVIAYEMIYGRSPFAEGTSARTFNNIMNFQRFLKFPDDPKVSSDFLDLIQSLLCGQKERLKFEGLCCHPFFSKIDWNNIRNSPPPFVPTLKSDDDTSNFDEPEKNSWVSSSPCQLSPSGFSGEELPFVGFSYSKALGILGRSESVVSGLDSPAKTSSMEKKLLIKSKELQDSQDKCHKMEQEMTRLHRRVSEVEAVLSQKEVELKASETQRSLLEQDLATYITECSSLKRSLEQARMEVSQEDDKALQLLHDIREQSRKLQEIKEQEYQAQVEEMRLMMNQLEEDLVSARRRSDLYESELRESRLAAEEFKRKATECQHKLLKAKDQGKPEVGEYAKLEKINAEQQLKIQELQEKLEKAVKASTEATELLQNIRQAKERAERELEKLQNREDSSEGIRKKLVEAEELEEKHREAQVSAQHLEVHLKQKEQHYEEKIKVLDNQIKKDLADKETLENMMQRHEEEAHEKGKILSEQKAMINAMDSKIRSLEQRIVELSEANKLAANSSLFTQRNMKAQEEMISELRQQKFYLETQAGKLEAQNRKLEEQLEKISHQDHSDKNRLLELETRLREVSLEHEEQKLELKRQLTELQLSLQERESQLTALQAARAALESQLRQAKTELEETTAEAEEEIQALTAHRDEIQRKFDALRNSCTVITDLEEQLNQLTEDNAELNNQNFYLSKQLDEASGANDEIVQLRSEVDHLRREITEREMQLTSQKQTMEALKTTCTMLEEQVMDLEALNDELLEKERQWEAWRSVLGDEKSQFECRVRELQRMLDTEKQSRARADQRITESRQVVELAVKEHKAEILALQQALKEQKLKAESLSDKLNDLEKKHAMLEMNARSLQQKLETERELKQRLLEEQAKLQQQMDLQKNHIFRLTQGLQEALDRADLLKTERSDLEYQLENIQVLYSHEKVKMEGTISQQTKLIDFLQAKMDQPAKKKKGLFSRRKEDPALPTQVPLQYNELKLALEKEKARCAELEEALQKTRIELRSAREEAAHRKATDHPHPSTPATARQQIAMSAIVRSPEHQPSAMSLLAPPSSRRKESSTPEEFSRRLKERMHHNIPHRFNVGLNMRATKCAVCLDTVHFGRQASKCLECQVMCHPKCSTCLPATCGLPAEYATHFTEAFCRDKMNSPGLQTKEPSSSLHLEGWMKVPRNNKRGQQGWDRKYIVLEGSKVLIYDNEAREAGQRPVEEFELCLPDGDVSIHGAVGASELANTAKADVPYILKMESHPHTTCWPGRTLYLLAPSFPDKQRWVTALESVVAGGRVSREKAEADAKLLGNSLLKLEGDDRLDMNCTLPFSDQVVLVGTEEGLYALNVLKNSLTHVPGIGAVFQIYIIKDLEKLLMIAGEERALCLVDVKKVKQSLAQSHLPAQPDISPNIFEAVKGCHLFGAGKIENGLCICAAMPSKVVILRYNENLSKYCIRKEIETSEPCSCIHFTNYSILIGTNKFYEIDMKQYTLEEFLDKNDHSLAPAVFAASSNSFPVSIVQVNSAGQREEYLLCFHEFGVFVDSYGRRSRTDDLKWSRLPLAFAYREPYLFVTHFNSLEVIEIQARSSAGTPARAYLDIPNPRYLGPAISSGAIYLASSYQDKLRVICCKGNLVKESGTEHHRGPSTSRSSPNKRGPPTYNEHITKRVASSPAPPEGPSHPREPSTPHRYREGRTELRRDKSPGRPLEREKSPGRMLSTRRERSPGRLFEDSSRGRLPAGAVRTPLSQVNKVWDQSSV
Chain of CLK1 (P49759 whole entry): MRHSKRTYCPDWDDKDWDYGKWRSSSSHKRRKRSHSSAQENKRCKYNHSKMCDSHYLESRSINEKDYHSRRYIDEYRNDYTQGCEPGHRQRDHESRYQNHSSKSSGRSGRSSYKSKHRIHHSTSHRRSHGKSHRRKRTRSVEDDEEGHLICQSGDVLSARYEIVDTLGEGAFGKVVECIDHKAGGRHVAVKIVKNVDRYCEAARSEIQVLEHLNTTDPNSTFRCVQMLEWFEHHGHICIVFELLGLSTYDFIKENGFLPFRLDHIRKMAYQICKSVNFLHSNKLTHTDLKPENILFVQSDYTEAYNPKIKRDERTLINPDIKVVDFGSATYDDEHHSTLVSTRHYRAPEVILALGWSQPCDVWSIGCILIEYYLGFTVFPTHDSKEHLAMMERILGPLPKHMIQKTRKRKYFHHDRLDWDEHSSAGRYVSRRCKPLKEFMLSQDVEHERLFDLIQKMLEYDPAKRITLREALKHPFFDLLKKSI

Molecule `Nc1ncc(-c2cc([N+](=O)[O-])ccc2F)cc1-c1ccc2c(c1)CCNC2=O` [Compound I-1, 6-(2-amino-5-(2-fluoro-5-nitrophenyl)pyridin-3-yl)-3,4-dihydroisoquinolin-1(2H)-one] has a remaining binding at 1 µM (DYRK2) of 3%, a remaining binding at 1 µM (BMPR1B) of 0.75% and a remaining binding at 1 µM (CLK1) of 1.6%. For the same molecule, the remaining binding at 1 µM (VRK2) was 2.4%, the remaining binding at 1 µM (CSNK1A1) was 3.7% and the remaining binding at 1 µM (CLK4) was 2.6%. The remaining binding at 1 µM (DYRK1A) was 0%, the remaining binding at 1 µM (CSNK1G1) was 4.6% and the remaining binding at 1 µM (MINK) was 3.8%. The IC50 (IRAK1; Kinase Selectivity Data, IRAK1) was 110 nM, the remaining binding at 1 µM (IRAK1; [1]) was 2.8% and the IC50 (CSNK1E; Kinase Selectivity Data, CSNK1E) was 201 nM. It also gave a remaining binding at 1 µM (CSNK1E; [1]) of 0.1%, a remaining binding at 1 µM (GSK3A) of 0% and a remaining binding at 1 µM (DRAK1) of 0.15%. It also gave an IC50 (CSNK1G3; Kinase Selectivity Data, CSNK1G3) of 4.68 nM, a remaining binding at 1 µM (CSNK1G3; [1]) of 0% and a remaining binding at 1 µM (CLK2) of 5%. It also gave a remaining binding at 1 µM (CSNK1G2) of 4%, an IC50 (MST2; Kinase Selectivity Data, MST2) of 42.6 nM and a remaining binding at 1 µM (MST2; [1]) of 1.2%. For the same molecule, the remaining binding at 1 µM (CIT) was 0.05%, the remaining binding at 1 µM (DYRK1B) was 0.75% and the remaining binding at 1 µM (CSNK1A1L) was 1.7%. The remaining binding at 1 µM (DCAMKL3) was 2.5%.
`Nc1ncc(-c2cccc([N+](=O)[O-])c2F)cc1-c1ccc2c(c1)CCNC2=O` [Compound I-9, 6-(2-amino-5-(2-fluoro-3-nitrophenyl)pyridin-3-yl)-3,4-dihydroisoquinolin-1(2H)-one] was tested, and the “affinity for STK4, as of ATP binding” value (STK4) was “highest affinity”.
